{"source": "patent US20080196124A1", "about": "“Plant Growth Hormone Regulated Transcription Factors and Promoters Thereof” (DONALD DANFORTH PLANT SCIENCE CENTER, priority 2006, published 2008)", "key": {"[1]": {"test_system": "AtMyb77 promoter::GUS plants", "test": "AtMyb77 promoter::GUS reporter expression in roots after auxin", "assay_type": "in vivo, Arabidopsis", "conditions": "100 nM IAA, lateral roots, one day", "procedure": "To localize GUS activity, plants were stained with 1 mM X-Gluc solution 4 days after germination (DAG) (Vicente-Agullo et al. 2004) and were de-stained (Malamy and Benfey 1997). The pictures were taken using a Nikon SMZ1500 dissecting microscope (Nikon). Plants were transferred 3-DAG to full nutrient (1.75 mM KCl) or to low K plates (10 μM KCl), and then grown for 7 days before staining. For auxin treatment, plants were transferred 6-DAG to full nutrient plates (no auxin), and to plates containing 100 nM of IAA, or 80 nM of 2, 4-D, and then grown for one day before staining. Incubation time was 60 minutes and protein concentration was calculated with the CB-X kit (GenoTech).\nExpression of AtMyb77-promoter driven GUS expression was detected in roots (FIG. 3) and leaves of seedlings. In roots the expression was localized to the inner cell layers of the primary root including the stele (FIGS. 3A and B). At the tip of primary roots expression of GUS was also seen in the root cap cells (FIG. 3A). Throughout the root expression was visible in the vascular tissue. An interesting pattern of expression was observed during the development of lateral roots. Initially when the lateral roots emerge, the reporter gene expression was observed above and below the emerging lateral root primordia in the cortical cells (FIG. 3C). […]"}, "wildtype Col-0 roots": {"test_system": "wildtype Col-0 roots", "test": "Northern blot of auxin regulated genes in roots, wildtype", "assay_type": "in vivo, Arabidopsis", "conditions": "20 μM IAA", "procedure": "(§1) FIG. 6. Northern blots of Arabidopsis wildtype Col-0 and T-DNA insertion line atmyb77-1 roots grown in hydroponic conditions for 7 weeks and treated with 20 μM IAA for 0, 6, 30 and 54 hours. Northern blots were probed with 3′ probes from auxin regulated and related genes. Ribosomal RNA loading control shown at bottom.\n(§2) Plants were initially grown in nutrient solutions using a rock wool system (Gibeaut et al. 1997) for six weeks at 22° C. with 8 h daylight at 200 μmol.m-2.s-1. Three weeks after germination, plants were transferred to hydroponic tanks containing nutrient medium (Shin et al. 2005) with aeration. Plants were then exposed to a final concentration of 20 μM of IAA (Sigma-Aldrich, St.Louis, Mo.) in the nutrient solutions. After 6 h, 30 h and 54 h roots were harvested. For probes, cDNA fragments were amplified from Arabidopsis cDNA by PCR using primers for the indicated genes as follows: […]\n(§3) The amplified cDNAs were labeled with α-^32P-dCTP (Amersham) and Northern blot analyses were performed as described (Shin et al. 2005)."}, "[2]": {"test_system": "atmyb77 T-DNA insertion lines (KO)", "test": "Lateral root number with exogenous auxin, atmyb77 T-DNA insertion line", "assay_type": "in vivo, Arabidopsis", "conditions": "mean ± SE", "procedure": "(§4) FIG. 4. Reduced AtMyb77 expression reduces lateral root growth sensitivity to exogenous auxin. (A) atmyb77-1 T-DNA insertion line and wild-type Arabidopsis Col-0 grown on MS plates with no added auxin have the same number and length of lateral roots. (B) atmyb77-1 has more lateral roots than wildtype Col-0 with 100 nM IAA and (C) 80 nM 2, 4-D. (D) Mean lateral root numbers per primary root under control conditions and with 100 nM IAA and 80 nM 2, 4-D (n=100±SE).\n(§5) The effects of exogenous auxin on lateral root growth under control conditions were also tested in wild-type and atmyb77-1 plants. Wildtype Col-0 and atmyb77-1 plants had the same number of lateral roots and the same primary root length under control conditions (FIGS. 4A and D; Table I). […] Primary root length was the same between lines for each treatment."}, "wildtype (Col-0)": {"test_system": "wildtype (Col-0)", "test": "Lateral root number with exogenous auxin, wildtype", "assay_type": "in vivo, Arabidopsis", "conditions": "for lateral root number: Col-0, mean ± SE", "procedure": "as §4, §5"}, "[3]": {"test_system": "atmyb77-1 T-DNA insertion line roots", "test": "Northern blot of auxin regulated genes in roots, atmyb77-1", "assay_type": "in vivo, Arabidopsis", "conditions": "20 μM IAA; 6, 30, 54 h; atmyb77-1 roots", "procedure": "as §1, §2, §3"}, "MRE element": {"test_system": "MRE element", "test": "Gel mobility shift assay, MRE", "assay_type": "binding, Arabidopsis", "conditions": "100 ng AtMyb77::His, 3x repeat labeled oligo", "procedure": "(§6) An AtMyb77 cDNA fragment was amplified by PCR and cloned into the Ndel and SacI sites of the pET28 vector (Novagen, Madison, Wis., USA). The primer set used for the amplification was 5′-[…]-3′ (SEQ ID NO:37) and 5′-[…]-3′ (SEQ ID NO:38). The resulting in-frame fusion was transformed into Escherichia coli strain BL21 (DE3). Overexpression of AtMyb77::His was induced by 0.5 mM isopropyl-β-D-thiogalactoside at 20° C. for 4 h. Bacteria were pelleted after the induction period, suspended in lysis buffer (50 mM NaH2PO4H2O, 300 mM NaCl, 10 mM Imidazole) and subjected to sonication on ice for 1 min. Bacterial lysates were then centrifuged. The His tagged fusion protein was recovered by affinity chromatography on Nickel-NTA (Sigma-Aldrich, St. Louis, Mo., USA) and the purified protein was used for gel mobility shift assays.\n(§7) Both strands of the MRE element ([…]; SEQ ID NO:39) (Hoerena et al. 1998), the MYBcore element ([…]; SEQ ID NO:40) (Larsen 2003), mutated MRE (mMRE) element ([…]; SEQ ID NO:41), mutated MYBcore (mMYBcore) element ([…]; SEQ ID NO:42) and GCC box ([…]; SEQ ID NO:43; Fujimotoa et al., 2000) were synthesized and were end-labeled with […] (Amersham, Pittsburgh, Pa., USA) by T4 polynucleotide kinase (New England Biolabs, Beverly, Mass., USA) at 37° C. for 1 h. […]"}, "MYBcore element": {"test_system": "MYBcore element", "test": "Gel mobility shift assay, MYBcore", "assay_type": "binding, Arabidopsis", "conditions": "100 ng AtMyb77::His, 3x repeat labeled oligo", "procedure": "as §6, §7"}, "GCC box": {"test_system": "GCC box", "test": "Gel mobility shift assay, GCC box", "assay_type": "binding", "conditions": "band shift", "procedure": "as §6, §7"}, "[4]": {"test_system": "mutated MYBcore (mMYBcore) element", "test": "Gel mobility shift assay, mutated MYBcore", "assay_type": "binding", "conditions": "band shift", "procedure": "as §6, §7"}, "[5]": {"test_system": "mutated MRE (mMRE) element", "test": "Gel mobility shift assay, mutated MRE", "assay_type": "binding", "conditions": "band shift", "procedure": "as §6, §7"}}}
{"molecule": "O=C(O)Cc1c[nH]c2ccccc12", "note": "[IAA, indoleacetic acid]", "values": [{"measurement": "AtMyb77 promoter driven GUS expression", "setting": "[1]", "value": "increase in the expression"}, {"measurement": "expression of IAA19, IAA1, IAA28, AUX1, SAUR-AC1, AXR1, ARF7, AtMyb77 and Tir1", "setting": "wildtype Col-0 roots; 6, 30, 54 h vs 0 h, wild-type roots", "value": "Clear induction of expression"}, {"measurement": "PIN1 expression", "setting": "wildtype Col-0 roots; after 54 hours, wildtype roots", "value": "not induced"}, {"measurement": "lateral root number", "setting": "[2]; 100 nM IAA", "value": "13.57 ± 0.38", "unit": "c"}, {"measurement": "lateral root number", "setting": "wildtype (Col-0); 100 nM IAA", "value": "10.05 ± 0.55", "unit": "b"}, {"measurement": "lateral root formation, wildtype compared to atmyb77-1", "setting": "wildtype (Col-0); seedlings treated with 100 nM IAA", "value": "reduced significantly more in the wildtype"}, {"measurement": "induction of auxin regulated genes", "setting": "[3]", "value": "greatly attenuated or abolished"}]}
{"molecule": "AtMyb77: HIS tagged AtMyb77 R2R3 Myb transcription factor protein (SEQ ID NO:10) purified from E. coli", "values": [{"measurement": "binding to MRE sequence (band shift)", "setting": "MRE element", "value": "bound"}, {"measurement": "binding to MYBcore sequence (band shift)", "setting": "MYBcore element", "value": "bound"}, {"measurement": "binding to ethylene binding element (GCC)", "setting": "GCC box", "value": "no interaction"}, {"measurement": "binding to MYBcore with single nucleotide change", "setting": "[4]", "value": "eliminated the interaction and binding"}, {"measurement": "binding to MRE with single nucleotide change", "setting": "[5]", "value": "eliminated the interaction and binding"}]}
{"molecule": "O=C(O)COc1ccc(Cl)cc1Cl", "note": "[2,4,-D, 2,4-dichlorophenoxyacetic acid]", "values": [{"measurement": "lateral root number", "setting": "[2]; 80 nM 2,4-D", "value": "8.80 ± 0.19", "unit": "b"}, {"measurement": "lateral root number", "setting": "wildtype (Col-0); 80 nM 2,4-D", "value": "7.41 ± 0.20", "unit": "days"}, {"measurement": "lateral root formation, wildtype compared to atmyb77-1", "setting": "wildtype (Col-0); seedlings treated with 80 nM 2,4-D", "value": "reduced significantly more in the wildtype"}]}
